Like-named read-outs stand apart in the source and are kept apart here.

Common to all, as to assay type: cell-based
Assay [1] relates to brain cortex (rich in M1). Kind of assay: accumulation of IPX in dissipated rat brain cortex. The settings on record: in words. Here is the method: (§1) Effects of compounds 6A and 7A were then measured ex vivo in dissipated rat tissues (FIG. 5). Accumulation of IPX was measured in dissipated brain cortex (rich in M1 & M3), submaxillary gland (M1 & M3), and ventral tegmental area (M5). Native tissues express about 10-times less muscarinic receptors than CHO cell lines. Accumulation of cAMP was measured in cerebellum (M2) and striatum (M4).
(§2) Rat dissipated tissues: Suspension of dissipated tissues from rat brain cortex, cerebellum, striatum, ventral tegmental area (VTA) and submaxillary glands was prepared as described previously in supplementary methods. Adult 8-weeks old male Wistar rats were scarified by cervical dislocation in accordance with current legislative and guidelines under permission of Czech Ministry of Agriculture 16OZ23113/2017-17214. Tissues were dissected immediately. Submaxillary glands were minced by scissors. Tissues were dispersed by incubation for 15 min at 37° C. in KHB supplemented with trypsin and trituration every 5 min. Large undissipated parts were removed by cell mesh. […]
(§3) Measurements of the production of cAMP and inositol phosphates: Levels of second messengers cAMP and inositol phosphates were determined in radiochemical chromatography assays as described previously. […] Samples were applied to alumina columns (1.5 g of alumina per column), washed with 2 ml ammonium acetate (pH=7.0) and eluted from columns with 4 ml ammonium acetate and measured by liquid scintillation spectrometry. […] After separation of water and organic phases, 0.6 ml of water phase was applied to Dowex columns (1.5 g of Dowex per column), washed by 20 ml of 60 mM ammonium formate/5 mM sodium borate buffer and eluted from columns with 4 ml of 1M ammonium formate/0.1 formic acid buffer and measured by liquid scintillation spectrometry.
(§4) To exclude the possibility that the observed effects of compounds 6A and 7A are the result of overexpression in the heterologous system, functional response to the compounds was measured ex vivo in dissipated native rat tissues. […] Accumulation of cAMP was measured in M2-rich cerebellum and M4-rich striatum.

Assay [2] has as its system submaxillary gland (rich in M3). Kind of assay: accumulation of IPX in dissipated rat submaxillary gland. The settings on record: in words. Here is the method:
as §1, §2, §3, §4

A further assay has as its target T1, M1 muscarinic receptor (Homo sapiens, UniProt P11229).
T1 sequence (P11229 1-460): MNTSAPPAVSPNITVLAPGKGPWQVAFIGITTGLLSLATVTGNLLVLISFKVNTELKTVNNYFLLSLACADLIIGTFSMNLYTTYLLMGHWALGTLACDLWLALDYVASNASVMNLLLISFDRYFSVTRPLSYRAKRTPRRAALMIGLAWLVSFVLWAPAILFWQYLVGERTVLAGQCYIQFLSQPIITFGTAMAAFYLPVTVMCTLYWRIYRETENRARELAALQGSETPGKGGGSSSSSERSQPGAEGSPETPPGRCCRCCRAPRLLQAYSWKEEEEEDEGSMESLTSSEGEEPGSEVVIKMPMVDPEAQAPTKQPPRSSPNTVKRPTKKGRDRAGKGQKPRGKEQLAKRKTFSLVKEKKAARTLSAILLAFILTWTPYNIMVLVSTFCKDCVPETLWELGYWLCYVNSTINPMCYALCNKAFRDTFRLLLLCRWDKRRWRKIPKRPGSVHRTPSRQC
In words: accumulation of IPX, M1 CHO cells transfected with G15 (M1Gq+G15). Also noted: host or cells: CHO cells. The protocol:
To determine level of cAMP, cells in suspension were pre-incubated for 1 h with 0.4 μM [^3H]adenine, washed, and incubated for 10 min in the presence of isobutylmethylxanthine and 10 μM forskolin. […] Incubation was ended by addition of 0.2 ml of 2.5 M HCl to the samples. Samples were applied to alumina columns (1.5 g of alumina per column), washed with 2 ml ammonium acetate (pH=7.0) and eluted from columns with 4 ml ammonium acetate and measured by liquid scintillation spectrometry. […] The incubation was stopped by addition of 0.5 ml of chloroform methanol HCl mixture (2:1:0.1). After separation of water and organic phases, 0.6 ml of water phase was applied to Dowex columns (1.5 g of Dowex per column), washed by 20 ml of 60 mM ammonium formate/5 mM sodium borate buffer and eluted from columns with 4 ml of 1M ammonium formate/0.1 formic acid buffer and measured by liquid scintillation spectrometry.
Measurements of the production of cAMP and inositol phosphates: Levels of second messengers cAMP and inositol phosphates were determined in radiochemical chromatography assays as described previously. To determine level of cAMP, cells in suspension were pre-incubated for 1 h with 0.4 μM [^3H]adenine, washed, and incubated for 10 min in the presence of isobutylmethylxanthine and 10 μM forskolin. […] Incubation was ended by addition of 0.2 ml of 2.5 M HCl to the samples. Samples were applied to alumina columns (1.5 g of alumina per column), washed with 2 ml ammonium acetate (pH=7.0) and eluted from columns with 4 ml ammonium acetate and measured by liquid scintillation spectrometry. […] For this purpose, new CHO cell lines stably expressing promiscuous G15 G-protein and M2 or M4 receptor were generated by transfection with pCMV/hygro vector and hygromycin selection. To determine the rate of formation of inositol phosphates IPX, suspended cells were pre-incubated with 0.1 μM [^3H]myo-inositol for 60 min, washed, and incubated with 10 mM LiCl for 15 min. […] The incubation was stopped by addition of 0.5 ml of chloroform methanol HCl mixture (2:1:0.1). After separation of water and organic phases, 0.6 ml of water phase was applied to Dowex columns (1.5 g of Dowex per column), washed by 20 ml of 60 mM ammonium formate/5 mM sodium borate buffer and eluted from columns with 4 ml of 1M ammonium formate/0.1 formic acid buffer and measured by liquid scintillation spectrometry.
For bi-phasic response, curves were inhibitory and stimulatory phase were fitted separately. Operational Model of Functional Agonism
[formula] where y is functional response at concentration of tested compound x, EMAX is maximal response of the system, KA is equilibrium dissociation constant and nH is slope factor. Eq. 5 was fitted to data from functional experiments. Eq. 5 was fitted to data by the two-step procedure described earlier. […] In the second step, Eq. 5 with EMAX fixed to the value determined in the first step was fitted to individual experimental data sets. Relative Intrinsic Activity

Setting [3] is: M1Gq + G15 (↑IPX), Table 8, relative to carbachol.
Where [4] appears, read: M1Gq + G15 (↑IPX), Table 8, to carbachol.
[5] abbreviates: M1Gq + G15 (↑IPX), Table 8, read-out: pEC50 (converted).
The mark [6] stands for this setting: M1Gq + G15 (↑IPX), Table 8, read-out: pKA (converted).

Turning to `C1=CCN(Cc2cccs2)CC1.Cl` [Compound 6A, 1-[(thiophen-2-yl)methyl]-1,2,3,6-tetrahydropyridin-1-ium chloride], the “accumulation of IPX” value in assay [1] is reported as “negligible increase in IPX”. Moreover, the “accumulation of IPX” value in assay [2] is on record as “no increase in IPX levels”. Further, on M1 muscarinic receptor (M1Gq + G15 (↑IPX), Table 8), the “E′MAX” value was 2.0 ± 0.2 fold increase and the τ is 0.03 ± 0.01. Also, the RAi on M1 muscarinic receptor (setting [3]) was determined as 0.0010 ± 0.0001. Besides, at M1 muscarinic receptor (setting [4]), the “Δlog(τ/KA)” value was found to be 2.98 ± 0.26. Also, at M1 muscarinic receptor (setting [5]), the EC50 was 7940 nM. The Kd at M1 muscarinic receptor (setting [6]) is 7940 nM.

As to `C[N+]1(Cc2cccs2)CC=CCC1.[I-]` (stereo not drawn) [Compound 7A, 1-methyl-1-[(thiophen-2-yl)methyl]-1,2,3,6-tetrahydropyridin-1-ium iodide], in assay [1], the “accumulation of IPX” value is given as “negligible increase in IPX”. Further, the “accumulation of IPX” value in assay [2] was “no increase in IPX levels”. For the same compound, on M1 muscarinic receptor (M1Gq + G15 (↑IPX), Table 8), the “E′MAX” value is 4.6 ± 0.4 fold increase and the τ was 0.12 ± 0.01. At M1 muscarinic receptor (setting [3]), the RAi amounted to 0.0111 ± 0.0002. The “Δlog(τ/KA)” value on M1 muscarinic receptor (setting [4]) stood at 1.96 ± 0.16. The EC50 at M1 muscarinic receptor (setting [5]) was 2630 nM. Moreover, the Kd at M1 muscarinic receptor (setting [6]) was 3160 nM.

Regarding `C[N+](C)(C)CCOC(N)=O` [carbachol, reference compound], the “accumulation of IPX” value in assay [1] and in assay [2] was “profound accumulation of IPX” in each case.

In the case of `O=C1CCCN1CC#CCN1CCCC1` [oxotremorine, reference compound], on M1 muscarinic receptor, the EC50 is 52.5 nM, the “E′MAX” value is recorded as 25 ± 2 fold increase, the Kd is 200 nM and the RAi turned out to be 3.71 ± 0.29. Besides, on M1 muscarinic receptor, the “Δlog(τ/KA)” value is −0.57 ± 0.06 and the τ stood at 2.6 ± 0.3.
